Legend:
HT-29 = assay: Antiproliferative activity against human HT29 cells after 48 hrs by MTT assay; assay type: functional, cell-based; conditions: HT-29, 48 h
[1] = Inhibition of human recombinant N-myristoyltransferase

IC50 (HT-29): 90.9 µM
IC50 [1]: 3200 µM
Structure (SMILES): COc1ccc(C(=S)NNC(=O)c2ccccc2)cc1

Source: ChEMBL document CHEMBL1149804, “Bioactivity of novel transition metal complexes of N'-[(4-methoxy)thiobenzoyl]benzoic acid hydrazide” (Eur J Med Chem, 2008)
